The NIST ThermoML archive (doi:10.1016/j.jct.2004.11.007)
± gives the expanded uncertainty stated by the source.

Assays:
[1] = for vapor or sublimation pressure: Liquid; for Triple point temperature: Crystal
[2] = Solid-liquid equilibrium temperature; conditions: 100 kPa; Crystal
[3] = Molar enthalpy of transition or fusion; conditions: Crystal; DSC

Structure (SMILES)	vapor or sublimation pressure ([1]; 373.15 K) [kPa]	Triple point temperature ([1]; visual observation) [K]	vapor or sublimation pressure ([1]; 333.15 K) [kPa]	further results
CCCCC(C)=O [2-hexanone]	43.8 ± 1.8			Triple point temperature [1]: 218.42 ± 2 K; Solid-liquid equilibrium temperature [2]: 215.57 ± 2 K
CCCC(=O)CCC [4-heptanone]		241.77 ± 0.39		
CN1CCCC1=O [N-methylpyrrolidone]	3.6 ± 2.6	249.68 ± 0.39	0.5	Molar enthalpy of transition or fusion [3]: 2.64 ± 0.0693 kcal/mol
CC(C)=O [acetone]			115.7 ± 5.4	
O=C1CCCC1 [cyclopentanone]		220.77 ± 0.39		
CCC(=O)CC [pentan-3-one]	95.9 ± 4.9	234.36 ± 0.39		
